Reference: ChEMBL document CHEMBL6078632, “Discovery of Janus Kinase and Histone Deacetylase Dual Inhibitors as a New Strategy to Treat Psoriasis” (J Med Chem, 2024)
pIC50: −log10 of the molar value. Calls of active or inactive are those of the source. No cut-off for these calls is given here.

Assays:
[1] = target: T1, Tyrosine-protein kinase JAK2 (Homo sapiens, UniProt O60674); assay: Inhibition of JAK2 (unknown origin) using FAM-labelled peptide and ATP at 100 nM measured after 25 mins incubation relative to control
HaCaT = assay: cells; conditions: Homo sapiens, 48 h
Description: Antiproliferative activity against human HaCAT cells assessed as inhibition of TNFalpha-induced proliferation measured after 48 hrs by CCK-8 assay

Histone deacetylase 1 = Histone deacetylase 1 (Homo sapiens, UniProt Q13547); assay: Inhibition of recombinant human HDAC1 using (Ac-Leu-Gly-Lys(Ac)-AMC as substrate measured after 30 mins by fluorescence assay
[2] = target: T1, Tyrosine-protein kinase JAK2; assay: Inhibition of JAK2 (unknown origin) using FAM-labelled peptide and ATP measured after 25 mins incubation relative to control
Mus musculus [3] = assay: Antipsoriatic activity against imiquimod-induced psoriasis BALB/c mouse model assessed as reduction in skin thickness at 0.25 % applied topically back of the mouse for 7 consecutive days by hematoxylin and eosin staining based histological analysis; assay type: functional, organism-based; conditions: route top
RAW264.7 [4] = assay: Antiinflammatory activity in mouse RAW264.7 cells assessed as inhibition of LPS-induced IFN-gamma release at 0.9 uM incubated for 24 hrs by ELISA; assay type: functional, cell-based
RAW264.7 [5] = assay: cells; assay type: functional; conditions: Mus musculus, time 24 hrs
Description: Antiinflammatory activity in mouse RAW264.7 cells assessed as inhibition of LPS-induced NO release at 0.4 uM incubated for 24 hrs relative to control

RAW264.7 [6] = assay: Antiinflammatory activity in mouse RAW264.7 cells assessed as inhibition of LPS-induced TNFalpha release at 0.9 uM incubated for 24 hrs by ELISA; assay type: functional, cell-based
[7] = Antiproliferative activity against human LO2 cells; assay type: toxicity, cell-based, L02
[8] = Metabolic stability of the compound in female ICR mouse liver microsomes assessed as clearance at 1 uM measured up to 45 mins by LC-MS/MS analysis; assay type: ADME; conditions: read-out: CLH
[9] = target: Non-receptor tyrosine-protein kinase TYK2 (Homo sapiens, UniProt P29597); assay: Inhibition of TYK2 (unknown origin) using FAM-labelled peptide and ATP measured after 25 mins incubation relative to control
Mus musculus [10] = assay: Antipsoriatic activity against imiquimod-induced psoriasis BALB/c mouse model assessed as improvement in psoriatic symptom at 0.5 % applied topically back of the mouse for 7 consecutive days; assay type: functional, organism-based; conditions: route top
RAW264.7 [11] = assay: Antiinflammatory activity in mouse RAW264.7 cells assessed as inhibition of LPS-induced NO release at 0.10 uM incubated for 24 hrs relative to control; assay type: functional
[12] = target: T2, Tyrosine-protein kinase JAK3 (Homo sapiens, UniProt P52333); assay: Inhibition of JAK3 (unknown origin) using FAM-labelled peptide and ATP measured after 25 mins incubation relative to control
T2 sequence (P52333 whole entry): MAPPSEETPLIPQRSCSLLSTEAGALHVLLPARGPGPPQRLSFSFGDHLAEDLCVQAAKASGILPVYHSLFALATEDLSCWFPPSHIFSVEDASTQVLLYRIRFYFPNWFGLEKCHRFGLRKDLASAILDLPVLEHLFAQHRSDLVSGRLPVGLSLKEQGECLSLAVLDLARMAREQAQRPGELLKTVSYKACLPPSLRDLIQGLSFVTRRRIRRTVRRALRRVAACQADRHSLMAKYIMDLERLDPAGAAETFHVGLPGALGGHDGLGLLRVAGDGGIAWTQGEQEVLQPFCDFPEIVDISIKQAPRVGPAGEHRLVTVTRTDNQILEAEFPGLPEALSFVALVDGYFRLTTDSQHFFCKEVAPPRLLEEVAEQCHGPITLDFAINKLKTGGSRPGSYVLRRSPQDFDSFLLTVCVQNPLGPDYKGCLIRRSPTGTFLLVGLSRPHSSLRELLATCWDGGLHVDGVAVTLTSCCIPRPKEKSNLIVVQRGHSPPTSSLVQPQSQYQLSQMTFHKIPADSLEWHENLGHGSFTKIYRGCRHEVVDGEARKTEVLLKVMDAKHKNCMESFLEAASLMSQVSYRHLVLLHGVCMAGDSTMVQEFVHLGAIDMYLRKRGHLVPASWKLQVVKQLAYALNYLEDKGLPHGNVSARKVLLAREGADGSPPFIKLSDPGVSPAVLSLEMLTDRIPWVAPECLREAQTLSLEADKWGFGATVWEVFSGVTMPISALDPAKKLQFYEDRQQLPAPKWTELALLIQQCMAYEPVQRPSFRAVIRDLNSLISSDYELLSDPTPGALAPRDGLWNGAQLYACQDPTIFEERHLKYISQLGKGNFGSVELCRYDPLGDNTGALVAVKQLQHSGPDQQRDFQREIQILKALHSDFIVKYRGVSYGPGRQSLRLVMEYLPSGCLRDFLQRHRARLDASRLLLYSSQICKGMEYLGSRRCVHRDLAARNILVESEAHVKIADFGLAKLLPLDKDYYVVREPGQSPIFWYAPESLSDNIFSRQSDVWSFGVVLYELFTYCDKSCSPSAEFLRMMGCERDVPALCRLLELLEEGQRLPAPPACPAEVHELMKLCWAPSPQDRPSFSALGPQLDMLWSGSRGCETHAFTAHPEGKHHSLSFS

Histone deacetylase 8 = target: T3, Histone deacetylase 8 (Homo sapiens, UniProt Q9BY41); assay: Inhibition of recombinant human HDAC8 using (Ac-Leu-Gly-Lys(Tfa)-AMC as substrate measured after 30 mins by fluorescence assay
T3 sequence (Q9BY41 whole entry): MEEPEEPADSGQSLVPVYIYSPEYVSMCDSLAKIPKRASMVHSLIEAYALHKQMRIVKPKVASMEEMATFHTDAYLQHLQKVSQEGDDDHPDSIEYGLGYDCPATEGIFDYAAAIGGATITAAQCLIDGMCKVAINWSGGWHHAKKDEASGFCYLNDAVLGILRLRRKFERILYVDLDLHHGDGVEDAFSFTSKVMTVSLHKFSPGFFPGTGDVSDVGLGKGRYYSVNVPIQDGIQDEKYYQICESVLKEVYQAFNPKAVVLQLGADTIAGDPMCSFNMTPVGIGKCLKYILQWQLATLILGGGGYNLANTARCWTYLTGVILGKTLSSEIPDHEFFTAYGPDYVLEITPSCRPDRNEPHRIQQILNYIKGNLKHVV

Mus musculus [13] = assay: Antipsoriatic activity against imiquimod-induced psoriasis BALB/c mouse model assessed as reduction in skin thickness at 0.5 % applied topically back of the mouse for 7 consecutive days by hematoxylin and eosin staining based histological analysis; assay type: functional, organism-based; conditions: route top
RAW264.7 [14] = assay: Antiinflammatory activity in mouse RAW264.7 cells assessed as inhibition of LPS-induced NO release at 0.20 uM incubated for 24 hrs relative to control; assay type: functional
RAW264.7 [15] = assay: Antiinflammatory activity in mouse RAW264.7 cells assessed as inhibition of LPS-induced IL-12 release at 0.9 uM incubated for 24 hrs by ELISA; assay type: functional, cell-based
[16] = Metabolic stability of the compound in female ICR mouse liver microsomes assessed as half life at 1 uM measured up to 45 mins by LC-MS/MS analysis; assay type: ADME
[17] = Antiproliferative activity against HUVEC cells; conditions: human
[18] = target: Platelet-derived growth factor receptor alpha (Homo sapiens) (UniProt P16234); assay: Inhibition of PDGFRalpha (unknown origin) at 10 nM relative to control
Mus musculus [19] = assay: Antipsoriatic activity against imiquimod-induced psoriasis BALB/c mouse model assessed as reduction in epidermal thickness applied topically back of the mouse for 7 consecutive days by hematoxylin and eosin staining based histological analysis; assay type: functional, organism-based; conditions: dose 0.25-0.5 %, route top
Mus musculus [20] = assay: Antipsoriatic activity against imiquimod-induced psoriasis BALB/c mouse model assessed as improvement in psoriatic symptom at 0.25 to 0.5 % applied topically back of the mouse for 7 consecutive days; assay type: functional, organism-based; conditions: dose 0.25-0.5 %, route top
Mus musculus [21] = assay: Antipsoriatic activity against imiquimod-induced psoriasis BALB/c mouse model assessed as improvement in psoriatic symptom at 0.25 % applied topically back of the mouse for 7 consecutive days; assay type: functional, organism-based; conditions: route top
[22] = Acute toxicity in BALB/c mouse assessed as animal death at 7508 mg/kg; assay type: organism-based; conditions: in vivo
[23] = Acute toxicity in BALB/c mouse assessed as animal death; conditions: in vivo

Chain of Histone deacetylase 1 (Q13547 whole entry): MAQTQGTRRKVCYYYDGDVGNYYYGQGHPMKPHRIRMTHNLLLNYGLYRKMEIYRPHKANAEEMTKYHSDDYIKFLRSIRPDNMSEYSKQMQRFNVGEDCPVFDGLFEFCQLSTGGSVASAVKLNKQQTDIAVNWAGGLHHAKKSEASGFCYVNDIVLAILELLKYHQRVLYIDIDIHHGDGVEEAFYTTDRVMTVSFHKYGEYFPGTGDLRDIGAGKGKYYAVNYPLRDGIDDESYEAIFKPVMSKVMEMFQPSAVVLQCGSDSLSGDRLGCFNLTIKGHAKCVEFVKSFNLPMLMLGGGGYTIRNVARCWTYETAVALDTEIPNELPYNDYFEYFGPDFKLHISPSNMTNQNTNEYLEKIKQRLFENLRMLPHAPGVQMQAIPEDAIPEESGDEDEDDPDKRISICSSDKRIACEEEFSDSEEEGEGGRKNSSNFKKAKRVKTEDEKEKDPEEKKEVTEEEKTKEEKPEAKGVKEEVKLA
T1 sequence (O60674 whole entry): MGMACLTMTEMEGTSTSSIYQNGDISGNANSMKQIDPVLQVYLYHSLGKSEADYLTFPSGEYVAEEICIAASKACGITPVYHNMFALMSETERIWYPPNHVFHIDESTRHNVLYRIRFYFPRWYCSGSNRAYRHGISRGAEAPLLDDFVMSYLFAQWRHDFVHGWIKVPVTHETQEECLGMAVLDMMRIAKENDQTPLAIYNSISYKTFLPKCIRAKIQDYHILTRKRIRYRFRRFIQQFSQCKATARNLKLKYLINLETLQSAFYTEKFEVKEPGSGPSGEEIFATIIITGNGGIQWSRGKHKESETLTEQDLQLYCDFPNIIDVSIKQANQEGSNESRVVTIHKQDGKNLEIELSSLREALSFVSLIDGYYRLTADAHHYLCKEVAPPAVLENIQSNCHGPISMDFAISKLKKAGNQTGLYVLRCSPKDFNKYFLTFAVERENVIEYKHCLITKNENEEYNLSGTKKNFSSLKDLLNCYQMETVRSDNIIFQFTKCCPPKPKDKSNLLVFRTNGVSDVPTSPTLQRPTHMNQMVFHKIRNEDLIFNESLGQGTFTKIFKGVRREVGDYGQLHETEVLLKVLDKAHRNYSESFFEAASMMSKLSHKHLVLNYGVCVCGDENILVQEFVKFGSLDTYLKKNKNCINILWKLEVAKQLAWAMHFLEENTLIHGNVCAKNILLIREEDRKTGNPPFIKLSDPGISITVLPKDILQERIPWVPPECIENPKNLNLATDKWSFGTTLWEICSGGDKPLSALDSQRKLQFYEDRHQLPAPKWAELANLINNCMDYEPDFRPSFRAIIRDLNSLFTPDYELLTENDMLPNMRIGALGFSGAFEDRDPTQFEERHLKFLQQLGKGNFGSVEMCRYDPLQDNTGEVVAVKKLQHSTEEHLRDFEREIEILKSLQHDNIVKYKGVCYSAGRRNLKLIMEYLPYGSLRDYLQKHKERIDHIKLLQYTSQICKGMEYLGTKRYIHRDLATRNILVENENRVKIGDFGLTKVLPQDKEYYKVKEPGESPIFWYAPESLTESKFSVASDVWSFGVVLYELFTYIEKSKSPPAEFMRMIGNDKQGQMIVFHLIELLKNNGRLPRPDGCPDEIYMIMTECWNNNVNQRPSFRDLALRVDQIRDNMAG
Chain of Non-receptor tyrosine-protein kinase TYK2 (P29597 whole entry): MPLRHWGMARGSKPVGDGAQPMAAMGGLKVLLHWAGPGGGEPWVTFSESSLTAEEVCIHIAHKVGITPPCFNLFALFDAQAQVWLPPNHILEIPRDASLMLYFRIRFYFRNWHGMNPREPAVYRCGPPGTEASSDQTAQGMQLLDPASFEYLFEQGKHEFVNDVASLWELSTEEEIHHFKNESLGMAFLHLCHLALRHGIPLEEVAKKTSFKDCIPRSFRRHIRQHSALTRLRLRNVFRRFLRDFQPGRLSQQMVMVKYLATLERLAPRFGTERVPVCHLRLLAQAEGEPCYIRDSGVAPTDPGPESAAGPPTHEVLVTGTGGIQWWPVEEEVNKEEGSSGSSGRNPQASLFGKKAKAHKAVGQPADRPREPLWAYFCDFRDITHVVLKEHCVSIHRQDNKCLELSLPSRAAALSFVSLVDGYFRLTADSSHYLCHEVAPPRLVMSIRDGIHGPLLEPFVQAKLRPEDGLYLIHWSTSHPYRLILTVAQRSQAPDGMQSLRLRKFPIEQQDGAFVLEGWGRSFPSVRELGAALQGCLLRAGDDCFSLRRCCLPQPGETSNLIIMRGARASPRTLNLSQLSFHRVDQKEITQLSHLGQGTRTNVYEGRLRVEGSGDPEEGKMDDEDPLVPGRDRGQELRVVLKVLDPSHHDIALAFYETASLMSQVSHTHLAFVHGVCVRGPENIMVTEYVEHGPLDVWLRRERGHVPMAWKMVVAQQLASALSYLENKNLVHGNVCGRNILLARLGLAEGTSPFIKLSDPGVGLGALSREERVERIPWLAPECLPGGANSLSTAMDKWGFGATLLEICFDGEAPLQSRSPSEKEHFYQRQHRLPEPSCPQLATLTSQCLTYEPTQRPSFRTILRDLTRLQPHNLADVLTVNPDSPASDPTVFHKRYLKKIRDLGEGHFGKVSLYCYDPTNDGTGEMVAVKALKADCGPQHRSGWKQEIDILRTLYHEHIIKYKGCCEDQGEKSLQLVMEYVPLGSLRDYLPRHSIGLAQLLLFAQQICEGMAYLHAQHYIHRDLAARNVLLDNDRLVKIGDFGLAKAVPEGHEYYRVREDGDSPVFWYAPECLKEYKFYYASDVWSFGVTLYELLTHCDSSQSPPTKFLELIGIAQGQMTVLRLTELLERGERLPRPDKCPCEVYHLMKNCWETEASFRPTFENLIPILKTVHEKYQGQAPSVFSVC
Chain of Platelet-derived growth factor receptor alpha (Homo sapiens) (P16234 whole entry): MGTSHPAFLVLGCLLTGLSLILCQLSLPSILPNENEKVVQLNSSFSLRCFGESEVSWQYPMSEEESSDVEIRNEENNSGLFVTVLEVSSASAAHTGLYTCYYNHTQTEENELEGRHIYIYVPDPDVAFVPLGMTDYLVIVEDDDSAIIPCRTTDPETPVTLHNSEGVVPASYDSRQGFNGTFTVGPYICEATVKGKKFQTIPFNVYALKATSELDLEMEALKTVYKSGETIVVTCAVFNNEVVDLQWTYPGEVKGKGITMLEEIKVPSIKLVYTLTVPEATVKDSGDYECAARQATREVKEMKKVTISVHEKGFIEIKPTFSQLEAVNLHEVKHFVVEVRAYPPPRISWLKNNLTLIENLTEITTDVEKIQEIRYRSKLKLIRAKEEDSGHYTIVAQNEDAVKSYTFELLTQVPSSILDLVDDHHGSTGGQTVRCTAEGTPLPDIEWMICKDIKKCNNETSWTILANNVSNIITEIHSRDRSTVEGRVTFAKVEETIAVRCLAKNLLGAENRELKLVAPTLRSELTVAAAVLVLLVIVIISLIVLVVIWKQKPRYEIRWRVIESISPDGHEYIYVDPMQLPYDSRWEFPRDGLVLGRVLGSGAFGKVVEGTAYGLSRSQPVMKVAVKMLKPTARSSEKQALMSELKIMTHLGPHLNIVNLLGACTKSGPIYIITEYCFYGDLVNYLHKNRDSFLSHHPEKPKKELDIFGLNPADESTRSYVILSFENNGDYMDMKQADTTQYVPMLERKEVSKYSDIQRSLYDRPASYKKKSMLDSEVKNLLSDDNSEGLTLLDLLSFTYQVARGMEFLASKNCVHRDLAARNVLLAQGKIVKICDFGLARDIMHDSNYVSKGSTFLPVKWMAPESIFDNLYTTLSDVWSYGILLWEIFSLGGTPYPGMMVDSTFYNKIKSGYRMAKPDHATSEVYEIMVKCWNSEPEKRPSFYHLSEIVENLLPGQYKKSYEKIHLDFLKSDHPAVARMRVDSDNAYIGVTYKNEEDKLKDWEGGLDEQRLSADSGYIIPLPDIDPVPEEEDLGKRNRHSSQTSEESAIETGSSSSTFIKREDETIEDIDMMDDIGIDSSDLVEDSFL

| Compound | inhibition [1] [%] | pIC50 (HaCaT) | inhibition at 0.4 µM (RAW264.7 [5]) [%] | other results |
| --- | --- | --- | --- | --- |
| C[C@@H]1CCN(C(=O)CC#N)C[C@@H]1N(C)c1ncnc2[nH]ccc12 [TOFACITINIB] |  | < 4.30 |  |  |
| CS(=O)(=O)Nc1ccc(-c2ccnc(Nc3ccc(N4CCN(CC(=O)NCCC(=O)NO)CC4)cc3)n2)cc1 | 99 | < 4.30 |  | pIC50 (Histone deacetylase 1): < 5.70 |
| CS(=O)(=O)Nc1ccc(-c2ccnc(Nc3ccc(N4CCN(CC(=O)NO)CC4)cc3)n2)cc1 | 99 | 5.00 |  | pIC50 (Histone deacetylase 1): < 5.70 |
| CS(=O)(=O)Nc1ccc(-c2ccnc(Nc3ccc(-c4cn(CC(=O)NCCCCCCCC(=O)NO)nn4)cc3)n2)cc1 |  | < 4.30 |  |  |
| CS(=O)(=O)Nc1ccc(-c2ccnc(Nc3ccc(N4CCN(CC(=O)Nc5ccc(/C=C/C(=O)NO)cc5)CC4)cc3)n2)cc1 | 99 |  | 110 | pIC50 [2]: 9.14; Activity (Mus musculus [3]): Active; Activity (RAW264.7 [4]): Active; Activity (RAW264.7 [6]): Active; pIC50 [7]: 5.30; CLint scaled at 1 µM [8]: 97.5 mL/min/kg; pIC50 [9]: 8.36; Activity (Mus musculus [10]): Active; inhibition at 0.1 µM (RAW264.7 [11]): 82.1%; pIC50 [12]: 8.10; pIC50 (Histone deacetylase 8): < 6.00; Activity (Mus musculus [13]): Active; inhibition at 0.2 µM (RAW264.7 [14]): 105%; Activity (RAW264.7 [15]): Active; half-life at 1 µM [16]: 56.3 min |
| CS(=O)(=O)Nc1ccc(-c2ccnc(Nc3ccc(N4CCN(CC(=O)NCCCC(=O)NO)CC4)cc3)n2)cc1 | 100 | 4.77 |  |  |
| N#CCNC(=O)c1ccc(-c2ccnc(Nc3ccc(N4CCOCC4)cc3)n2)cc1 [MOMELOTINIB] |  | 4.89 | 94.8 | pIC50 (Histone deacetylase 1): 7.40; pIC50 [17]: 5.14 |
| CS(=O)(=O)Nc1ccc(-c2ccnc(Nc3ccc(N4CCN(CC(=O)Nc5ccc(C(=O)NO)s5)CC4)cc3)n2)cc1 | 99 | 5.85 | 82.1 |  |
| CS(=O)(=O)Nc1ccc(-c2ccnc(Nc3ccc(N4CCN(CC(=O)Nc5ccc(C(=O)NO)cc5)CC4)cc3)n2)cc1 | 99 | 5.92 | 105 | pIC50 [2]: 9.31; pIC50 [17]: 5.00; inhibition [18]: > 50%; Activity (Mus musculus [3]): Active; Activity (RAW264.7 [4]): Active; Activity (Mus musculus [19]): Dose-dependent-effect; Activity (Mus musculus [20]): Active; Activity (RAW264.7 [6]): Active; Activity (Mus musculus [21]): Active; Compound Showed Better Activity Than 11G And Vorinostat/Momelotinib Control; CLint scaled at 1 µM [8]: 138 mL/min/kg; Activity [22]: Non-toxic; pIC50 [9]: 8.59; inhibition at 0.1 µM (RAW264.7 [11]): 105%; pIC50 [12]: 8.25; LD50 [23]: > 7510 mg/kg; inhibition at 0.2 µM (RAW264.7 [14]): 105%; Activity (RAW264.7 [15]): Active; half-life at 1 µM [16]: 39.8 min |
| CS(=O)(=O)Nc1ccc(-c2ccnc(Nc3ccc(N4CCN(CC(=O)NCCCCCCCC(=O)NO)CC4)cc3)n2)cc1 | 100 | 5.00 | 71.3 |  |

The next lines start with results.

| inhibition [1] [%] | Compound | pIC50 (HaCaT) | inhibition at 0.4 µM (RAW264.7 [5]) [%] | other results |
| --- | --- | --- | --- | --- |
| 98 | CS(=O)(=O)Nc1ccc(-c2ccnc(Nc3ccc(-c4cn(CC(=O)NCCCCCC(=O)NO)nn4)cc3)n2)cc1 | < 4.30 |  |  |
| 97 | CS(=O)(=O)Nc1ccc(-c2ccnc(Nc3ccc(-c4cn(CC(=O)NCCC(=O)NO)nn4)cc3)n2)cc1 | < 4.30 |  |  |
| 99 | CS(=O)(=O)Nc1ccc(-c2ccnc(Nc3ccc(-c4cn(CC(=O)NCCCC(=O)NO)nn4)cc3)n2)cc1 | < 4.30 |  |  |
| 98 | CS(=O)(=O)Nc1ccc(-c2ccnc(Nc3ccc(N4CCN(CC(=O)NCCCCC(=O)NO)CC4)cc3)n2)cc1 | 4.80 |  |  |
| 98 | CS(=O)(=O)Nc1ccc(-c2ccnc(Nc3ccc(-c4cn(CC(=O)Nc5ccc(C(=O)NO)cc5)nn4)cc3)n2)cc1 | < 4.30 |  | pIC50 (Histone deacetylase 1): < 5.70 |
| 98 | CS(=O)(=O)Nc1ccc(-c2ccnc(Nc3ccc(-c4cn(CC(=O)NCCCCC(=O)NO)nn4)cc3)n2)cc1 | < 4.30 |  |  |
| 99 | CS(=O)(=O)Nc1ccc(-c2ccnc(Nc3ccc(-c4cn(CC(=O)NO)nn4)cc3)n2)cc1 | < 4.30 |  | pIC50 (Histone deacetylase 1): < 5.70 |
| 99 | CS(=O)(=O)Nc1ccc(-c2ccnc(Nc3ccc(N4CCN(CC(=O)NCCCCCC(=O)NO)CC4)cc3)n2)cc1 | 5.02 |  |  |
| 99 | CS(=O)(=O)Nc1ccc(-c2ccnc(Nc3ccc(-c4cn(CC(=O)NCCCCCCC(=O)NO)nn4)cc3)n2)cc1 | < 4.30 |  |  |
| 99 | CS(=O)(=O)Nc1ccc(-c2ccnc(Nc3ccc(N4CCN(CC(=O)NCCCCCCC(=O)NO)CC4)cc3)n2)cc1 | 5.28 | 73.9 |  |
